From PubChem BioAssay (NCI) come the findings set out here.

The structures appear in SMILES notation. Values joined by “and” are separate entries in the source; they are usually repeats but may differ in a detail not shown here. Equal entries are not always repeated.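 A five-concentration, 48-hour dose response in 96-well plates underlies each endpoint, interpolated linearly between surrounding concentrations. At the GI50, growth is halved. TGI marks complete inhibition of growth.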

Among the test systems are BT-549 breast; COLO 205 colon; HCT-15 colon; ACHN renal; SK-MEL-2 melanoma; NCI-H226 lung; SNB-75 CNS; SN12C renal; NCI-H460 lung; IGROV1 ovarian.
Holding throughout (experiment): DTP human tumour cell line panel, 48 h

What is called TGI is the concentration giving total growth inhibition. Read a high TGI as lower sensitivity of the cells. In the case of `CC(C)C(O)(C(C)C)C(C)C`, the total growth inhibition concentration (TGI) with BT-549 breast, in the test on COLO 205 colon, with HCT-15 colon, in the test with ACHN renal, with SK-MEL-2 melanoma and in the test with NCI-H226 lung was > 100 µM in each case. The TGI with SNB-75 CNS, with SN12C renal, with NCI-H460 lung and in the test with IGROV1 ovarian was > 100 µM throughout.
`Cc1ccc(S(=O)(=O)N=Nc2c(O)[nH]c3cc(O)c(C(=O)O)cc23)cc1`: the TGI in the test with BT-549 breast, in the test on COLO 205 colon, in the test with HCT-15 colon, in the test with ACHN renal, in the test on SK-MEL-2 melanoma and in the test with NCI-H226 lung was > 100 µM throughout. Besides, the TGI with SNB-75 CNS, in the test on SN12C renal, with NCI-H460 lung and in the test on IGROV1 ovarian was > 100 µM each time.
With `CNC(=O)OCc1c(COC(=O)NC)c(-c2ccc(-c3ccccc3)cc2)n(C)c1C`, the TGI in the test with BT-549 breast stood at 7.11 µM; in the test on COLO 205 colon, 16.5 µM; in the test with HCT-15 colon, 9.43 µM; in the test on ACHN renal it was 4.27 µM; with SK-MEL-2 melanoma, 4.96 µM; in the test on NCI-H226 lung, 32.5 µM. The TGI is 10.6 µM with SNB-75 CNS, 3.8 µM in the test on SN12C renal, 12.2 µM in the test with NCI-H460 lung and 12 µM with IGROV1 ovarian.
Usually GI50 stands for the concentration giving 50% growth inhibition. Turning to `C[C@]12CCc3sc(Nc4ccc(OC(F)(F)F)cc4)nc3C1=CC[C@@H]1[C@@H]2CC[C@]2(C)C(=O)CC[C@@H]12`, the GI50 in the test with BT-549 breast was 1.78 µM; in the test with COLO 205 colon, 2.61 µM; in the test on HCT-15 colon it was 1.69 µM; in the test with ACHN renal it was 3.27 µM; in the test with SK-MEL-2 melanoma, 3 µM; with NCI-H226 lung, 6.37 µM. Further, the GI50 in the test with SNB-75 CNS is 1.88 µM; with SN12C renal, 3.44 µM; in the test with NCI-H460 lung, 3.25 µM; in the test with IGROV1 ovarian it was 3.32 µM. Also, the TGI in the test with BT-549 breast was found to be 7.42 µM; in the test on COLO 205 colon it was 6.76 µM; in the test with HCT-15 colon, 4.1 µM; with ACHN renal, 10.8 µM; in the test on SK-MEL-2 melanoma it was 11.6 µM; in the test with NCI-H226 lung it was 44.1 µM. The TGI with SNB-75 CNS was found to be 6.23 µM; with SN12C renal, 16.1 µM; in the test with NCI-H460 lung, 11.8 µM; with IGROV1 ovarian it was 10.8 µM.
Regarding `Cc1cn(C2CC(OC(=O)c3ccc(Cl)cc3)C(COC(=O)c3ccc(Cl)cc3)O2)c(=O)[nH]c1=O` (centres undefined), the TGI in the test on BT-549 breast, in the test with COLO 205 colon, in the test with HCT-15 colon, in the test on ACHN renal, with SK-MEL-2 melanoma and with NCI-H226 lung was > 100 µM throughout. The TGI with SNB-75 CNS, in the test on SN12C renal, with NCI-H460 lung and in the test with IGROV1 ovarian was > 100 µM throughout.
Take `NC(CSC(c1ccccc1)(c1ccccc1)c1ccccc1)C(=O)NCC(=O)O` (centres undefined): the GI50 in the test with BT-549 breast is 10.1 µM; with COLO 205 colon, 3.39 µM; in the test on HCT-15 colon, 4.89 µM; in the test with ACHN renal, 18.9 µM; in the test on SK-MEL-2 melanoma, 2.71 µM; with NCI-H226 lung, 23.4 µM. Moreover, the GI50 is 2.95 µM in the test on SNB-75 CNS, 4.05 µM with SN12C renal, 4.27 µM in the test with NCI-H460 lung and 10.7 µM in the test with IGROV1 ovarian. The TGI is > 100 µM in the test with BT-549 breast; > 100 µM with COLO 205 colon; > 100 µM in the test on HCT-15 colon; > 100 µM with ACHN renal; 7.93 µM in the test with SK-MEL-2 melanoma; > 100 µM in the test with NCI-H226 lung. The TGI in the test on SNB-75 CNS is 27.7 µM; with SN12C renal, > 100 µM; in the test with NCI-H460 lung, 78.8 µM; with IGROV1 ovarian, > 100 µM.
In the case of `Cc1cc(N(CC(C)Br)CC(C)Br)ccc1N=Nc1ccccc1C(=O)O` (centres undefined), the total growth inhibition concentration (TGI) was determined as 26.5 µM with BT-549 breast; 19.7 µM in the test with COLO 205 colon; 29 µM with HCT-15 colon; 13.5 µM in the test with ACHN renal; 10.2 µM with SK-MEL-2 melanoma; 13.3 µM in the test with NCI-H226 lung. Besides, the TGI with SNB-75 CNS was found to be 11.2 µM; in the test with SN12C renal, 20 µM; in the test on NCI-H460 lung it was 11.7 µM; in the test with IGROV1 ovarian it was 24.2 µM.
Turning to `CCCCCCCCn1ccc2cc(NC(=O)Cn3cc(CN4CCCCCC4)nn3)ccc21`, the GI50 with BT-549 breast is 1.72 µM; in the test on COLO 205 colon, 1.68 µM; in the test on HCT-15 colon, 1.6 µM; in the test with ACHN renal it was 1.73 µM; with SK-MEL-2 melanoma, 1.93 µM; in the test on NCI-H226 lung, 2.23 µM. Also, the GI50 in the test with SNB-75 CNS is 1.55 µM; in the test with SN12C renal, 1.67 µM; in the test on NCI-H460 lung, 1.85 µM; with IGROV1 ovarian, 1.72 µM. Also, the TGI in the test on BT-549 breast was determined as 3.32 µM; in the test with COLO 205 colon, 3.25 µM; in the test with HCT-15 colon it was 3.17 µM; in the test with ACHN renal, 3.11 µM; in the test with SK-MEL-2 melanoma, 3.6 µM; with NCI-H226 lung, 5.07 µM. In addition, the TGI was found to be 2.91 µM with SNB-75 CNS, 3.26 µM in the test with SN12C renal, 3.45 µM in the test with NCI-H460 lung and 3.33 µM in the test on IGROV1 ovarian.
For `CCCCCCCCCCCCCCCCCCOC[C@H](COP(=O)(O)O[C@H]1[C@H](O)[C@@H](O)[C@H](O)C[C@H]1O)OC`, the GI50 was > 100 µM and 15.9 µM in the test on BT-549 breast; 26.6 µM and 11 µM with COLO 205 colon; 37.2 µM and 14.3 µM in the test with HCT-15 colon; > 100 µM and 16.3 µM with ACHN renal; > 100 µM and 16.3 µM with SK-MEL-2 melanoma; > 100 µM and 24 µM in the test with NCI-H226 lung. The GI50 with SN12C renal was > 100 µM and 12.2 µM; with NCI-H460 lung, 79.4 µM and 11.7 µM; in the test with IGROV1 ovarian it was 21.9 µM and 3.28 µM. For the same compound, the TGI in the test with BT-549 breast was > 100 µM and 30.4 µM; in the test with COLO 205 colon it was > 100 µM and 24.2 µM; in the test with HCT-15 colon it was > 100 µM and 28.9 µM; in the test on ACHN renal it was > 100 µM and 30 µM; with SK-MEL-2 melanoma, > 100 µM and 30.2 µM; with NCI-H226 lung, > 100 µM and 44.5 µM. The TGI is 59.6 µM and 27.9 µM in the test with SNB-75 CNS; > 100 µM and 25.2 µM in the test on SN12C renal; > 100 µM and 26.1 µM in the test on NCI-H460 lung; 60.6 µM and 13.5 µM in the test on IGROV1 ovarian.
